Laboratory results as given in patent US11780821B2, “Inhibitors of fibroblast activation protein” (Praxis Biotech LLC, priority 2017, dated 2023).
Where two headings read alike, the source gives them in different places.

What was measured:
Format in all cases: biochemical
[1] = target: T1, recombinant human FAPα (rhFAPα) (Homo sapiens, UniProt Q12884); assay: FAPα enzymatic exopeptidase (dipeptidase) activity assay; details: for inhibition at 1 µM: read-out: rhFAPα (% exo inh @ 1 μM)
T1 construct: purchased R&S system (so in the source)
T1 sequence (Q12884 1-760): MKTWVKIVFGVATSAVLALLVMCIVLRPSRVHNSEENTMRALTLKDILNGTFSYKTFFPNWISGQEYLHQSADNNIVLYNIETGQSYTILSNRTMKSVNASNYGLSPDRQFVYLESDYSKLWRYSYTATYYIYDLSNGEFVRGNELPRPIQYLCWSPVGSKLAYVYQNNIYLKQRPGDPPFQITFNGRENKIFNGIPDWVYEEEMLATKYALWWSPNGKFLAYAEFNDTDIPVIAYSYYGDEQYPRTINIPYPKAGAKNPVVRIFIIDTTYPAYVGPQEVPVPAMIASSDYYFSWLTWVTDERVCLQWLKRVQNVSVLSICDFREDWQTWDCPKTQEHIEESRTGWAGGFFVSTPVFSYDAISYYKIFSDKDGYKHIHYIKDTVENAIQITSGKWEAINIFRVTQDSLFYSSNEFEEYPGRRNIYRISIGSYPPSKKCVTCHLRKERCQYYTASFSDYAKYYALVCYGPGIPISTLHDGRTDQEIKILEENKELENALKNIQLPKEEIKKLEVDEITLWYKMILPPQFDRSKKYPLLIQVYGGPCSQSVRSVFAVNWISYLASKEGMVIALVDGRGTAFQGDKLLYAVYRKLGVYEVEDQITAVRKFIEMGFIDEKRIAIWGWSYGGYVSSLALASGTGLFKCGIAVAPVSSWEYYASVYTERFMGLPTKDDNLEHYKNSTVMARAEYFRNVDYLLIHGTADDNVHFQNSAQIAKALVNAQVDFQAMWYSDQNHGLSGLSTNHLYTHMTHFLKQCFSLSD

[2] = target: T2, recombinant human DPPIV (rhDPPIV) (Homo sapiens, UniProt P27487); assay: DPPIV enzymatic activity assay; details: H-Gly-Pro-pNA substrate
T2 construct: purchased R&S system (so in the source)
T2 sequence (P27487 whole entry): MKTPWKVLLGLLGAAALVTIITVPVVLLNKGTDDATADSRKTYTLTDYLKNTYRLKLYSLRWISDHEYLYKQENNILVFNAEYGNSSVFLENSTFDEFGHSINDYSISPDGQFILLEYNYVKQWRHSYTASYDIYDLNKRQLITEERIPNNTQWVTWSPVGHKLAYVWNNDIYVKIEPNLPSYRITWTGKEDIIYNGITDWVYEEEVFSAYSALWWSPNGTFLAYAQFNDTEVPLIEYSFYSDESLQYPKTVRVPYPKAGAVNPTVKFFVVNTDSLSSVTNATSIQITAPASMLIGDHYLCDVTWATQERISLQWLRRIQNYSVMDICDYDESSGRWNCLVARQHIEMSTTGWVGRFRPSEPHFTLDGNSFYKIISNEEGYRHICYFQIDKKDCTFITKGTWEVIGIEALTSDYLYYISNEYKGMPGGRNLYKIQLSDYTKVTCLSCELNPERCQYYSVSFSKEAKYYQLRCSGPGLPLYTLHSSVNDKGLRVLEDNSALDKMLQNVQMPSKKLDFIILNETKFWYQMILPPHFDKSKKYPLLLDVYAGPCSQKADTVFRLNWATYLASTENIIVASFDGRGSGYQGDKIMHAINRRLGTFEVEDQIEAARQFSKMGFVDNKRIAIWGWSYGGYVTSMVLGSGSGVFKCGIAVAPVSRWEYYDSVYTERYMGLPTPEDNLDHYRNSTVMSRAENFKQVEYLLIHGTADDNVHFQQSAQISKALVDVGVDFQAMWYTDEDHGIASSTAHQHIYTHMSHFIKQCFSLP

[3] = target: T3, recombinant human DPP9 (rhDPP9) (Homo sapiens, UniProt Q86TI2); assay: DPP9 enzymatic activity assay; details: H-Gly-Pro-AMC substrate
T3 construct: purchased R&S system (so in the source)
T3 sequence (Q86TI2 whole entry): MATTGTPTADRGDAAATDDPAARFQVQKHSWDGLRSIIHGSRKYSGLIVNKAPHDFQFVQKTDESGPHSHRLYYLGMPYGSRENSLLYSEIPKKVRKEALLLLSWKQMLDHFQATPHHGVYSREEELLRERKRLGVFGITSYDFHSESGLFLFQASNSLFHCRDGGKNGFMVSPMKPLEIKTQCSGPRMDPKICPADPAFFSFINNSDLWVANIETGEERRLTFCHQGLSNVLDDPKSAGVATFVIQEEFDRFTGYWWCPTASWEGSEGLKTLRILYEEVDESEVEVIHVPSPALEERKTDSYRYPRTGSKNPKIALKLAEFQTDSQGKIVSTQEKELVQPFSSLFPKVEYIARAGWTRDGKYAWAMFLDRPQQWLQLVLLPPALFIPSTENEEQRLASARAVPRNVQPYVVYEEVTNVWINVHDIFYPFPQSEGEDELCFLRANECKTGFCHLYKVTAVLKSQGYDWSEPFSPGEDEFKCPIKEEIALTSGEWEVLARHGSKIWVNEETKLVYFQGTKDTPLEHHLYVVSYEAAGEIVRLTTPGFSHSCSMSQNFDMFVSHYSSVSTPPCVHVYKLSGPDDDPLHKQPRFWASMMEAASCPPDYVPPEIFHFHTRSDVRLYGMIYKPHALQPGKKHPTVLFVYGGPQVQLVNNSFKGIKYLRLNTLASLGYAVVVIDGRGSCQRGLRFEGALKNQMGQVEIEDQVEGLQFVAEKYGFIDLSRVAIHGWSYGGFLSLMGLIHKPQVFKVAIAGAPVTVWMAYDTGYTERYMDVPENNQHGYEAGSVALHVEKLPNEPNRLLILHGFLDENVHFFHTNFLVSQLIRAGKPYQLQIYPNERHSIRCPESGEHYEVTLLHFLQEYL
Protocol: 7-Amino-4-Methylcoumarin (AMC) release was detected by measuring fluorescence at Ex/Em 380/460 nm using a Multifunction Microplate Reader (Synergy 4, Biotek). All measurements were carried out in triplicate.

[4] = target: T4, circulating FAPα from human plasma (Homo sapiens, UniProt Q12884); assay: Ex vivo inhibition of circulating FAPα activity from human plasma
T4 construct: from tissue; host or cells: human plasma (EDTA-K2)
T4 sequence (Q12884 24-760 limits assumed): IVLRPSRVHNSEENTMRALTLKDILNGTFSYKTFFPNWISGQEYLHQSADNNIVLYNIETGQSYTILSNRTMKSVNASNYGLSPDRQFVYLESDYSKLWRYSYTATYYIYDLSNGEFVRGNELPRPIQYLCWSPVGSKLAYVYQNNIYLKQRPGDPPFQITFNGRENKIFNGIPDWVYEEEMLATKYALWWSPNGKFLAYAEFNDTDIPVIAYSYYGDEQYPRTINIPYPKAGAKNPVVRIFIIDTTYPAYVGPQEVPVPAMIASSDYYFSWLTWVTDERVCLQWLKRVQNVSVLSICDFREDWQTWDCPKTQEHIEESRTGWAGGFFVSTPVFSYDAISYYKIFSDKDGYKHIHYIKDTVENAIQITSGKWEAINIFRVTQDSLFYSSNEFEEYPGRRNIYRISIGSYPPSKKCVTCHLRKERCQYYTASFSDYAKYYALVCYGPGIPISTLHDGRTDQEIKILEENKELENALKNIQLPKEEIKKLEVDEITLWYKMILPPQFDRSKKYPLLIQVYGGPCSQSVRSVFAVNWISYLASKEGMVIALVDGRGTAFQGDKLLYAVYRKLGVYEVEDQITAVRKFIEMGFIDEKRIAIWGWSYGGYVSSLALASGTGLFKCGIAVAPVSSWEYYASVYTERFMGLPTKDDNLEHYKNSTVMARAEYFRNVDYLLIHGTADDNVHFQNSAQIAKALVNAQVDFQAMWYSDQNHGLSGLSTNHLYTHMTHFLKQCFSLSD
Protocol: Human blood was obtained from healthy young volunteers. Blood samples were collected in tubes coated with EDTA-K2 by venipuncture method, mixed gently, then kept on ice and centrifuged at 2,500×g for 15 minutes at 4° C. After plasma separation, samples were stored at −80° C. in aliquots of 300 μL. […] Exemplary compounds were allowed to interact with the enzyme for 15 minutes at 37° C. After pre-incubation, 50 μl of 200 μM PRXS-AMC substrate were added to the all mixtures. All reactions were carried out for 1 h at 37° C. protected from light. AMC release was detected measuring fluorescence at an excitation/emission wavelength of 380/460 nm using a Multifunction Microplate Reader. All measurements were carried out as single point.

[5] = 1 μM test compound, Z-Gly-Pro-AMC substrate
[6] = Table 2, exopeptidase, Z-Gly-Pro-AMC, read-out: rhFAPα (exo IC50)
[7] = Table 3, exopeptidase, read-out: rhFAPα (exo IC50)
[8] = human plasma, PRXS-AMC substrate, read-out: FAPα activity in human plasma (PRXS-AMC) IC50

SMILES | IC50 [2] [µM] | IC50 [3] [µM] | inhibition at 1 µM [1, 5] [%] | IC50 [1, 6] [µM] | IC50 [1, 7] [µM] | IC50 [4, 8] [µM] | IC50 [1] [µM] | inhibition at 1 µM [1] [%] | IC50 ([1]; read-out: rhFAPα (exo IC50), Table 3, exopeptidase) [µM] | IC50 [4] [µM]
N#C[C@@H]1CC(F)(F)CN1C(=O)CNC(=O)c1ccncc1-c1cc(F)cc(F)c1 [Compound 47, (S)—N-(2-(2-cyano-4,4-difluoropyrrolidin-1-yl)-2-oxoethyl)-3-(3,5-difluorophenyl)isonicotinamide] | > 10 | > 10 |  |  |  |  | < 1 | > 50 | < 1 | < 1
Cn1ncc2c(-c3cnccc3C(=O)NCC(=O)N3CC(F)(F)C[C@H]3C#N)cccc21 [Compound 87, (S)—N-(2-(2-cyano-4,4-difluoropyrrolidin-1-yl)-2-oxoethyl)-3-(1-methyl-1H-indazol-4-yl)isonicotinamide] | > 10 | > 10 | > 50 | < 1 | < 1 | < 1 |  |  |  | 
N#C[C@@H]1CC(F)(F)CN1C(=O)CNC(=O)c1ccncc1-c1ccccc1 [Compound 13, (S)—N-(2-(2-cyano-4,4-difluoropyrrolidin-1-yl)-2-oxoethyl)-3-phenylisonicotinamide] | > 10 | 1 to 10 |  | < 1 | < 1 | < 1 |  | > 50 |  | 
C=C(c1ccccc1)c1cnccc1C(=O)NCC(=O)N1CC(F)(F)C[C@H]1C#N [Compound 122, (S)—N-(2-(2-cyano-4,4-difluoropyrrolidin-1-yl)-2-oxoethyl)-3-(1-phenylvinyl)isonicotinamide] | > 10 | > 10 |  | < 1 | < 1 |  |  | > 50 |  | 
N#C[C@@H]1CC(F)(F)CN1C(=O)CNC(=O)c1ccncc1C1=CCNCC1 [Compound 105, (S)—N-(2-(2-cyano-4,4-difluoropyrrolidin-1-yl)-2-oxoethyl)-1′,2′,3′,6′-tetrahydro-[3,4′-bipyridine]-4-carboxamide 2,2,2-trifluoroacetate] | > 10 | > 10 |  | < 1 | < 1 | < 1 |  | > 50 |  | 
N#C[C@@H]1CC(F)(F)CN1C(=O)CNC(=O)c1ccncc1C1CC1 [Compound 24, (S)—N-(2-(2-cyano-4,4-difluoropyrrolidin-1-yl)-2-oxoethyl)-3-cyclopropylisonicotinamide] | > 10 | 1 to 10 |  | < 1 | < 1 | < 1 |  | > 50 |  | 
N#C[C@@H]1CC(F)(F)CN1C(=O)CNC(=O)c1ccncc1N1CCOCC1 [Compound 88, N-[2-[(2S)-2-cyano-4,4-difluoro-pyrrolidin-1-yl]-2-oxo-ethyl]-3-morpholino-pyridine-4-carboxamide] | 1 to 10 | 1 to 10 | > 50 | < 1 | < 1 | < 1 |  |  |  | 
N#C[C@@H]1CC(F)(F)CN1C(=O)CNC(=O)c1ccncc1-c1cc(Cl)ccc1F [Compound 54, (S)-3-(5-chloro-2-fluorophenyl)-N-(2-(2-cyano-4,4-difluoropyrrolidin-1-yl)-2-oxoethyl)isonicotinamide] | > 10 | > 10 | > 50 | < 1 | < 1 | < 1 |  |  |  | 
N#C[C@@H]1CC(F)(F)CN1C(=O)CNC(=O)c1c[nH]c(=O)cc1-c1ccc(F)cc1 [Compound 109, (S)—N-(2-(2-cyano-4,4-difluoropyrrolidin-1-yl)-2-oxoethyl)-4-(4-fluorophenyl)-6-oxo-1,6-dihydropyridine-3-carboxamide] | 1 to 10 | 1 to 10 |  | < 1 | < 1 | < 1 |  | > 50 |  | 
N#C[C@@H]1CC(F)(F)CN1C(=O)CNC(=O)c1ccncc1-c1ccc(F)cc1 [Compound 52, (S)—N-(2-(2-cyano-4,4-difluoropyrrolidin-1-yl)-2-oxoethyl)-3-(4-fluorophenyl)isonicotinamide] | > 10 | > 10 |  | < 1 | < 1 | < 1 |  | > 50 |  | 

More lines, main results first:

IC50 [2] [µM] | IC50 [3] [µM] | inhibition at 1 µM [1, 5] [%] | IC50 [1, 6] [µM] | IC50 [1, 7] [µM] | IC50 [4, 8] [µM] | SMILES | IC50 [1] [µM] | inhibition at 1 µM [1] [%] | IC50 ([1]; read-out: rhFAPα (exo IC50), Table 3, exopeptidase) [µM] | IC50 [4] [µM]
> 10 | 1 to 10 | > 50 | < 1 | < 1 | < 1 | N#C[C@@H]1CC(F)(F)CN1C(=O)CNC(=O)c1c[nH]c(=O)c(-c2ccccc2)c1 [Compound 14, (S)—N-(2-(2-cyano-4,4-difluoropyrrolidin-1-yl)-2-oxoethyl)-6-oxo-5-phenyl-1,6-dihydropyridine-3-carboxamide] |  |  |  | 
> 10 | < 1 | > 50 | < 1 | < 1 | < 1 | N#C[C@@H]1CC(F)(F)CN1C(=O)CNC(=O)c1ccncc1Cc1ccccc1 [Compound 50, (S)-3-benzyl-N-(2-(2-cyano-4,4-difluoropyrrolidin-1-yl)-2-oxoethyl)isonicotinamide] |  |  |  | 
> 10 | > 10 | > 50 | < 1 | < 1 | < 1 | C=Cc1cnccc1C(=O)NCC(=O)N1CC(F)(F)C[C@H]1C#N [Compound 40, (S)—N-(2-(2-cyano-4,4-difluoropyrrolidin-1-yl)-2-oxoethyl)-3-vinylisonicotinamide] |  |  |  | 
1 to 10 | 1 to 10 | > 50 | < 1 | < 1 | < 1 | N#C[C@@H]1CC(F)(F)CN1C(=O)CNC(=O)c1c[nH]c(=O)c2ccc(F)cc12 [Compound 26, (S)—N-(2-(2-cyano-4,4-difluoropyrrolidin-1-yl)-2-oxoethyl)-6-fluoro-1-oxo-1,2-dihydroisoquinoline-4-carboxamide] |  |  |  | 
1 to 10 | 1 to 10 |  | < 1 | < 1 | < 1 | N#C[C@@H]1CC(F)(F)CN1C(=O)CNC(=O)c1c[nH]c(=O)c2ccccc12 [Example 1, (S)—N-(2-(2-cyano-4,4-difluoropyrrolidin-1-yl)-2-oxoethyl)-1-oxo-1,2-dihydroisoquinoline-4-carboxamide] |  |  |  | 
